These results are taken from publication PMC12040169 (PLOS Biology, 2025).

The nature of the series: in vitro. The conditions noted are these: human, hela cells, % viability.
As a reminder, the viability is a read-out of living cells in per cent, often relative to untreated cells. For `O=c1[nH]nc2c(N3CCc4ccccc4C3)nccn12` [CBK288497], the viability at 28.5 h, 10 µM turned out to be 80.9%.

On to `S=c1[nH]cc(-c2ccc(Br)cc2)o1` [CBK288498], for which the viability at 28.5 h, 10 µM came out at 92.8%. Regarding `CN(CCCCCC(=O)/C=N/O)Cc1ccccc1` [CBK288499], the viability at 28.5 h, 10 µM turned out to be 91.7%. For `O/N=C/c1ccc(-c2cc(Cl)ccc2Cl)o1` [CBK288500], the viability at 28.5 h, 10 µM was determined as 92.6%. The result for `Fc1cccc(C2NC(S)=NC3=C2N2CCC3CC2)c1` (centres unmarked) [CBK288503] reads 88.2%.

As to `CC(C)CCn1c(=S)[nH]c2c(oc3ccccc32)c1=O` [CBK288504], the viability at 28.5 h, 10 µM is 100%. As for `CCCCn1c(S)nc2c(-c3ccccc3)c[nH]c2c1=O` [CBK288505], the viability at 28.5 h, 10 µM is 96.2%. Take `S=C1NC2c3ccccc3OC3(CCCCC23)N1` (centres unmarked) [CBK288506]: the viability at 28.5 h, 10 µM stood at 102%. The result for `S=c1[nH]nc(COc2ccc(Cl)cc2Cl)[nH]1` [CBK288511] reads 80.3%; that for `NS(=O)(=O)c1cc(C(=O)NCCc2ccc(F)cc2)c(Cl)cc1Cl` [CBK288512], 96.7%; that for `Cc1cn(-c2ccc(Br)cc2)[nH]c1=O` [CBK288513], 92.7%. As for `COc1ccc(C(=S)NCCCCCC(=O)O)cc1` [CBK288523], the viability at 28.5 h, 10 µM is 87.1%. The result for `CC1CCc2c(sc(NC(=O)c3ccncc3)c2C(N)=O)C1` (centres unmarked) [CBK288530] reads 87.8%; that for `C1=Nn2c(nnc2-c2ccncc2)SC(c2ccccc2)=C1` [CBK288535], 101%; that for `CCSc1nc(-c2ccncc2)ccc1C#N` [CBK288539], 75.2%. As to `CN1CCc2c(sc3ncn4nc(-c5ccncc5)nc4c23)C1` [CBK288540], the viability at 28.5 h, 10 µM amounted to 96.2%. For `Cc1nc2sc3c(c2c2nc(-c4ccncc4)nn12)CCCC3` [CBK288541], the viability at 28.5 h, 10 µM is 94.5%.

On to `c1cc(-c2nnc3n2CCCCS3)ccn1` [CBK288543], for which the viability at 28.5 h, 10 µM came out at 99.3%. For `Brc1cnc(-n2cnc3ccccc32)nc1` [CBK288546], the viability at 28.5 h, 10 µM came out at 84.2%. Turning to `N#Cc1sc2nc(-c3ccncc3)ccc2c1N` [CBK288547], the viability at 28.5 h, 10 µM was 78.3%. Consider `Cc1nn2c(-c3ccncc3)ccnc2c1-c1ccccc1` [CBK288548], for which the viability at 28.5 h, 10 µM was 103%. With `OCc1nnn(-c2ccncc2)c1CO` [CBK288549], the viability at 28.5 h, 10 µM came out at 96.8%.

As for `Cc1ccc(-c2ncc3c(=O)[nH]c(=O)n(C)c3n2)cc1` [CBK288553], the viability at 28.5 h, 10 µM is 89.6%. With `O=C1Nc2ccccc2C(O)(C(=O)NCc2ccccc2)N1c1ccccc1` (centres unmarked) [CBK288555], the viability at 28.5 h, 10 µM came to 91.1%. For `Cc1ccc(C)c(-c2csc3c(=O)[nH]cnc23)c1` [CBK288556], the viability at 28.5 h, 10 µM is 101%.

`O=C(O)CCc1nc(-c2ccncc2)no1` [CBK288558]: the viability at 28.5 h, 10 µM was found to be 98.7%. Turning to `COc1cc2[nH]c(=S)n3nc(-c4ccncc4)nc3c2cc1OC` [CBK288559], the viability at 28.5 h, 10 µM is 104%. In the case of `CSc1nc2ccccc2c2nc(-c3ccncc3)nn12` [CBK288566] it was 99.7%; in that of `CCCCn1c(SCc2nc(-c3ccncc3)no2)nc2ccsc2c1=O` [CBK288576], 87%. As for `O=C(NCCn1c(-c2ccncc2)nc2ccccc21)c1ccc(F)c(F)c1` [CBK288577], the viability at 28.5 h, 10 µM was 88.9%.

In the case of `O=S(=O)(NCCn1c(-c2ccncc2)nc2ccccc21)c1ccccc1` [CBK288578], the viability at 28.5 h, 10 µM is 87.2%.

As for `O=S(=O)(Cc1ccc(-c2nc(-c3ccncc3)no2)o1)c1ccccc1` [CBK288579], the viability at 28.5 h, 10 µM came out at 96.6%. In the case of `Cc1cccc(NC(=O)NCCCn2c(-c3ccncc3)nc3cccnc32)c1` [CBK288580], the viability at 28.5 h, 10 µM worked out at 97.5%. On to `COCCNC(=O)NCCCn1c(-c2ccncc2)nc2cccnc21` [CBK288581], for which the viability at 28.5 h, 10 µM stood at 98.6%. Consider `O=C1CC(c2nc(-c3ccncc3)no2)CN1c1ccc2c(c1)OCO2` (centres unmarked) [CBK288583], for which the viability at 28.5 h, 10 µM was determined as 110%. `NC(=O)Cn1cc(C(=O)c2ccncc2)c(=O)c2cc(Cl)ccc21` [CBK288584]: the viability at 28.5 h, 10 µM came to 86%. Regarding `O=C(c1csc(-c2ccncc2)n1)N1CCN(c2ccccc2)CC1` [CBK288590], the viability at 28.5 h, 10 µM was 110%. As for `O=C(NC1CCCCC1)c1csc(-c2ccncc2)n1` [CBK288591], the viability at 28.5 h, 10 µM worked out at 64.2%. `Cn1c(=O)n(Cc2ccccn2)c(=O)c2cnc(-c3ccncc3)nc21` [CBK288592]: the viability at 28.5 h, 10 µM was found to be 79%. Regarding `Cc1cccc(Cn2c(=O)c3cnc(-c4ccncc4)nc3n(C)c2=O)c1` [CBK288593], the viability at 28.5 h, 10 µM was 82.8%. In the case of `O=C(CCn1cnc2cc(-c3noc(-c4cnccn4)n3)ccc21)N1CCCC1` [CBK288595], the viability at 28.5 h, 10 µM was found to be 104%. The result for `CCCN1C(=O)COc2ccc(-c3noc(-c4ccccn4)n3)cc21` [CBK288596] reads 92.1%; that for `Cc1ccc(S(=O)(=O)CCc2noc(-c3n[nH]c4ccccc34)n2)cc1` [CBK288598], 104%. The result for `O=C(Cn1c(=O)c2nncn2c2ncccc21)NC1CCCCCC1` [CBK288600] reads 92.3%; that for `Cc1nnc2c(=O)n(CC(=O)N3CCN(C(C)C)CC3)c3cccnc3n12` [CBK288601], 94.3%; that for `O=C(NCCc1ccccc1)c1nc(-c2ccncc2)cs1` [CBK288604], 70%. Take `CC(C)CC(=O)N1CCCn2nc(-c3ccncc3)cc2C1` [CBK288606]: the viability at 28.5 h, 10 µM was found to be 94.7%. Take `O=C(c1ccncc1)N1CCCn2nc(-c3cccnc3)cc2C1` [CBK288607]: the viability at 28.5 h, 10 µM came to 88.7%. With `O=S(=O)(CCc1ccccc1)N1CCCn2nc(-c3ccncc3)cc2C1` [CBK288608], the viability at 28.5 h, 10 µM was 87.3%.

Take `O=C(c1cn(-c2cc(Nc3ccccc3)ncn2)cn1)N1CCOCC1` [CBK288610]: the viability at 28.5 h, 10 µM came out at 103%. In the case of `O=C(NC1CCCN(c2cc(-c3ccncc3)n[nH]2)C1)c1ccsc1` (centres unmarked) [CBK288619], the viability at 28.5 h, 10 µM was determined as 104%.

Regarding `O=C(c1ccncc1)N1CCCC1(CO)Cc1ccccc1` (centres unmarked) [CBK288620], the viability at 28.5 h, 10 µM was found to be 96.5%.

For the compound `Brc1ccc(-c2ccnc3nc(-c4ccncc4)nn23)cc1` [CBK288623], the viability at 28.5 h, 10 µM was 102%. On to `Cc1nc2ccccn2c1-c1csc(N)n1` [CBK288628B], for which the viability at 28.5 h, 10 µM amounted to 91.7%. On to `CC(C)(C)CC(=O)N1C[C@@H]2C[C@H](C1)c1ccc(NS(=O)(=O)c3cccs3)c(=O)n1C2` [CBK288708], for which the viability at 28.5 h, 10 µM was found to be 80.6%. Turning to `CCCS(=O)(=O)Nc1ccc(=O)n2c1[C@@H]1C[C@@H](CN(C(=O)c3ccc(OC)cc3)C1)C2` [CBK288711], the viability at 28.5 h, 10 µM was 78.3%. As for `O=C(Nc1ccccc1)Nc1ccc(=O)n2c1[C@@H]1C[C@@H](CN(C(=O)c3ccc(F)cc3)C1)C2` [CBK288714], the viability at 28.5 h, 10 µM was found to be 104%. Turning to `O=C(Nc1ccc(=O)n2c1[C@@H]1C[C@@H](CN(C(=O)Nc3ccc(F)cc3)C1)C2)c1ccccc1` [CBK288715], the viability at 28.5 h, 10 µM amounted to 89.9%. Take `O=C(NC1CC1)[C@H]1O[C@H](CCN2CCN(c3ccccc3)CC2)CC[C@@H]1O` [CBK288717]: the viability at 28.5 h, 10 µM came out at 96.8%.
